According to patent US10363239B2, “Method for inhibiting growth of cancer cells” (Pain Therapeutics, Inc., priority 2013, dated 2019):

What was measured:
[1] = tested on: human mammalian epithelial cells (HMEC); test: [3H]glucose uptake; format: cell-based; details: 0.1-5 nM; 4 days
Procedure: (§1) FIG. 1A through FIG. 1M illustrate the effects of various FLNA-binding compounds on glucose uptake in glioblastoma, melanoma, breast and pancreatic cancer cell lines, along with appropriate non-cancerous primary cell controls. Cells were grown in the absence or presence of 0.1-5 nM indicated compounds for 4 days. Following brief washes with PBS, cells were serum-deprived for 4 hours and then incubated in oxygenated Kreb's Ringer containing 0.1 μCi [^3H]glucose for 2 hours under constant oxygenation. The reaction was terminated by removal of the incubation medium, and cells were washed and scraped off to determine the amounts of [^3H]glucose in cells by scintillation spectrometry. […] N=5-6. […] . […] . To determine the effect of Compound C0105 on glucose utilization, the cancer and primary normal cells were plated extremely thinly (10%). Once cells attached, Compound C0105 was added at 0.1, 0.5, 1 or 5 nM in the medium twice daily (6 hours apart) for 4 days. The cells were serum-deprived (glucose deprived) for 2 hours. Cells were then rinsed with 1 ml PBS and glucose uptake was assessed by contacting the cells with [^3H]glucose (0.01 uCi/l ml) in Kreb's Ringer for 2 hours. Cells were then rinsed with 1 ml PBS 3 times, scraped off and their glucose content counted by liquid scintillation spectrophotometry.

[2] = tested on: primary human pancreatic epithelial cells; test: [3H]glucose uptake; format: cell-based; details: 0.1-5 nM; 4 days
Procedure: as §1

[3] = tested on: breast cancer HTB-22 cells; test: Cell proliferation by cell-cycling markers Ki67 and PCNA (Western blots); format: cell-based, human; details: 0.1-5 nM; 4 days
Procedure: The effect of contact with Compound C0105 on cell proliferation was determined by the levels of cell-cycling markers: Ki67 and PCNA using Western blots in HTB-22 and control human mammary epithelial cells (HMECs). Cells treated with vehicle and 0.1-5 nM Compound C0105 for 4 days were collected, washed and solubilized. The resultant cell lysates were size-fractionated on SDS-PAGE and Western blotting to determine the levels of Ki67, PCNA and actin (loading control). The protein bands were quantified using densitometric scanning.
The effect of C0105 on cell proliferation was determined by the levels of cell-cycling markers Ki67 and PCNA using Western blots in HTB-22 and control HMECs. Cells contacted with vehicle and 0.1-5 nM Compound C0105 for 4 days were collected, washed and solubilized. […] The protein bands were quantified using densitometric scanning. […]
To study the effect of Compound C0105 on PI3K activity, the cancer and primary normal cells were cultured to approximately 60-70% confluency, serum deprived for 4 hours, briefly washed with PBS and treated with vehicle or 0.1, 0.5, 1 or 5 nM Compound C0105 for 24 hours with in 0.1% FBS-containing culture medium. […] The cell pellets were sonicated in ice-cold immunoprecipitation buffer and protein concentrations measured by the Bradford method. […]

[4] = tested on: FLNA-bound K-ras and ras-GAP in BxPc3 cells; test: FLNA-bound K-ras and ras-GAP (immunoprecipitation, Western blotting); format: cell-based, human; details: 0.1, 0.5, 1 and 5 nM
Procedure: (§2) Thus, melanoma, two different pancreatic cancerous cell lines (MiaPaCa2 and BxPc3) and a glioblastoma cell line (U87) were treated with zero (vehicle), 0.1, 0.5, 1 and 5 nM Compound C0105 as previously discussed, and FLNA-bound K-ras and ras-GAP were immunoprecipitated, separated by Western blotting and the blot densities determined as discussed previously.
(§3) To study the effect of Compound C0105 on pS^2152FLNA levels, FLNA linkages to key regulators including protein phosphatases as well as activated Akt (pS^473-, pT^308-Akt), mTOR ([…]) and ERK (pY/pT-ERK) levels, the cancer and normal cells were cultured to approximately 90% confluency and treated with vehicle or varying concentrations of Compound C0105. The cells were washed with warm phosphate-buffered saline (PBS), pH 7.2, dissociated, homogenized by sonication and solubilized using 0.5% NP-40 (nonoxynol 40), 0.2% sodium cholate and 0.5% digitonin for 1 hour at 4° C.
(§4) The cell lysates were diluted 5-fold with immunoprecipitation buffer and immunoprecipitated with anti-FLNA, -Akt, -mTOR and -ERK2 as described previously [Talbot et al., J Clin Inv 122(4):1-23 (2012); Wang et al., J Neurosci 32(29):9773-9784 (2012)]. The levels of FLNA linkages, activated phosphorylated Akt (pS^473 and pT^308), phosphorylated mTOR (pS^2448) and phosphorylated ERK2 (pY/pT) were determined in anti-FLNA, -Akt, -mTOR and -ERK2 immunoprecipitates by Western blotting with appropriate antibodies directed against PTEN, PP2A, K-RAS, ras-GAP (FLNA linkages), pS^473Akt, pT^308Akt, pS^2448mTOR and pY/pT ERK2 (activation of Akt, mTOR and ERK2).

[5] = tested on: FLNA-bound K-ras and ras-GAP in MiaPaCa2 cells; test: as above; format: cell-based, human; details: 0.1, 0.5, 1 and 5 nM
Procedure: as §2, §3, §4

[6] = tested on: FLNA-bound K-ras and ras-GAP in glioblastoma cell line (U87); test: as above; format: cell-based, human; details: 0.1, 0.5, 1 and 5 nM
Procedure: as §2, §3, §4

[7] = tested on: FLNA-bound K-ras and ras-GAP in melanoma cells; test: as above; format: cell-based, human; details: 0.1, 0.5, 1 and 5 nM
Procedure: as §2, §3, §4

CN1CCC2(CC1)NCC(=O)N2Cc1ccccc1 [Compound C0105]
Basal glucose uptake [1]: no change | Basal glucose uptake [2]: no effect | Cell proliferation (Ki67 and PCNA levels) [3]: reduces cell proliferation | FLNA-bound K-ras [4]: reduces K-ras | FLNA-bound Ras-GAP [4]: increases Ras-GAP | FLNA-bound K-ras [5]: reduces K-ras | FLNA-bound Ras-GAP [5]: increases Ras-GAP | FLNA-bound K-ras [6]: reduces K-ras | FLNA-bound Ras-GAP [6]: increases Ras-GAP | FLNA-bound K-ras [7]: reduces K-ras | FLNA-bound Ras-GAP [7]: increases Ras-GAP
